Where two headings read alike, the source gives them in different places. One block for each compound: values may come before it.
What was measured:
mouse reticulocytes = settings: increased dose levels in male Balb/c mice
Method: Male Balb/c mice were then injected with 0.1 ml of a compound solution via the tail vein. At least 3 mice were injected per dose level. Saline only was used as a negative control. For a positive control, cyclophosphamide (cycloPP) was administered at a dose of 30 mg/kg. In the experimental group, the injections were repeated once per day for four days. In the positive control group, the sample was administered only once, on day three. On day 5, several microliters of blood were withdrawn from each subject and smeared on a glass slide. Cells were fixed in absolute methanol and stored in a slide rack.
For analysis, cells were stained with acridine orange and visualized under a fluorescence microscope by counting: (i) the number of reticulocytes per 5000 erythrocytes; and (ii) the number of micronucleated reticulocytes per 1000 reticulocytes. Reticulocytes were distinguished by their red fluorescence due to the presence of RNA. Micronuclei were distinguished by their green fluorescence due to the presence of DNA. The percentage of reticulocytes (%PCE) was then calculated. A decrease in the frequency of […] in the percentage of reticulocytes, is an indication of bone marrow toxicity. The percentage of reticulocytes with micronuclei (%PCE with MN) was also calculated. An increase in %PCE with MN is a measure of clastogenicity.
After initial results were determined, the experiment was repeated using increased dose levels, until: (i) Micronucleus formation was seen; or (ii) Bone marrow toxicity was observed; or (iii) The lethal dose was reached; or (iv) A dose of 5 g/kg was administered.

HIV-1 = settings: 1 minute irradiation, starting titer approximately 5.4 logs (Table 11)
p-selectin (GMP140) = assay: GMP-140 (p-selectin) expression on platelets, flow cytometry with CD62; type: cell-based, human; settings: 100 μM compound, 5 Joules/cm^2, 5 days storage; FIGS. 21C-24C
Method: To measure the effects of the present compounds and methods of decontamination on platelet function using these four indicators, four samples were prepared for each compound tested, two control samples and two containing compound. Three units of human platelets were obtained from the Sacramento Blood Center, Sacramento, Calif. These were each transferred under sterile conditions to 50 ml centrifuge tubes, then aliquots of each unit were transferred into a second set of 50 ml sterile centrifuge tubes. To each centrifuge tube containing platelet concentrate (PC), an aliquot of compound stock was added to reach a final concentration of 100 μM of compound. […] The samples were pipetted gently up and down to mix. Then aliquots (either 3 ml or 8 ml) of each sample was transferred to two sterile Teflon™ Medi-bags™ (American Fluoroseal Co., Silver Springs, Md.) (presently owned by The West Company, Lionville, Pa.). Samples were treated in one of two different sized bags, having either 3 ml or 8 ml capacity. […] For each compound tested, two control samples without compound were prepared by again removing aliquots of platelet concentrate (17 ml if using an 8 ml bag, […] if using a 3 ml bag) from the same one of the first set of 50 ml centrifuge tubes from which the compound sample was drawn, and dividing into Medibags, as before. One of each pair of Medibags containing a compound, and one of each pair of control Medibags, were illuminated for 5 Joules/cm^2 on the device described in Example 1, above. Then all experimental and control Medibags were placed on a platelet shaker for storage for 5 days. The same experiments were repeated several times to obtain more statistically meaningful data, as represented by “n”, the number of data points represented, in the graphs of FIGS. 21-24, discussed below.

platelets = assay: Platelet count, Sysmex cell counter; type: cell-based, human; settings: 100 μM compound, 5 Joules/cm^2, Day 5; FIGS. 21A-24A
Method: Samples were diluted 1:3 in blood bank saline.

R17 bacteriophage [1] = assay: R17 bacteriophage inactivation at constant concentration, varying doses of UV light; type: cell-based; settings: 1.0-3.0 J/cm^2, FIGS. 11-17
Method: Compounds of the present invention were also tested at a constant concentration for varying doses of UV light. Three sets of 1.5 mL tubes were prepared containing 0.6mL aliquots of R17 in DMEM (prepared as described above). The compound tested was added at the desired concentration and the samples were vortexed. The samples were then irradiated at intervals of 1.0 J/cm^2, until 3.0 J/cm^2 was reached. Between each 1.0 J/cm^2 interval, 100 μL was removed from each sample and placed in the first corresponding dilution tube, then five sequential dilutions were performed for each compound tested, at all 3 irradiation doses, as described above in this example.
Then 50 μL of Hfr 3000 bacteria was added to each tube, 3 mL of top agar was added and the tube contents were vortexed The contents of each tube was poured into its own LB plate and the plates were incubated overnight at 37° C. Plaques were counted by visual inspection the following morning.

[2] = HPLC retention time as rough estimate of hydrophobicity; type: physicochemical; settings: C-18 reversed phase, methanol/KH2PO4 gradient
Method: Adsorption data were then obtained by HPLC analysis on the test and control samples. Specifically, a 200 μl sample volume of PC was removed from each tube following the incubation period (special care being taken to ensure that no adsorbent particles were removed with the test samples). […] The addition of methanol lyses platelets and precipitates plasma proteins so that psoralen contained within the platelets is not excluded by the assay.
Since each of the psoralens were analyzed using the same type of BPLC assay, one can use the psoralens' relative retention times to rank them according to increasing hydrophobicity. […] Strong interactions with cells or plasma proteins could compete with adsorption, thereby interfering with resin binding.

[3] = system: Salmonella typhimurium tester strains; assay: Ames Salmonella dark mutagenicity test, overall assessment; type: cell-based; settings: two-fold or greater increase in revertants above background and dose dependence
Method: A brief description for each procedure is given here. […] TA97a, TA98, TA1537 and TA1538 are frameshift tester strains. TA100 and TA102 are base-substitution tester strains.
This served as the background controls.
For all experiments, the pre-incubation procedure was used.

R17 bacteriophage [4] = assay: R17 bacteriophage inactivation assay, varying compound concentration; type: cell-based; settings: 32 μM; starting titer approx. 7.5 logs; 1 minute irradiation
Method: An r-17 bacteriophage assay was used in this example to predict pathogen inactivation efficiency and to determine nucleic acid binding of the photoreactive binding compounds of the present invention. In the r-17 assay, the bacteriophage was placed in a solution with each compound tested and was then irradiated. The ability of the phage to subsequently infect bacteria and inhibit their growth was measured. The bacteriophage was selected for its relatively accessible nucleic acid such that the culture growth inhibition would accurately reflect nucleic acid damage by the test compounds. The bacteriophage assay for nucleic acid binding to test compounds offers a safe and inexpensive procedure to identify compounds likely to display efficient pathogen inactivation.
The R17 was grown up in Hfr 3000 bacteria, approximate titer 5×10^11. (R17 and Hfr 3000 were obtained from American Tissue Culture Collection (ATCC), Washington, D.C.) The R17 phage stock was added to a solution of 15% fetal bovine serum in Dulbecco's Modified Eagles Medium (DMEM) to a final phage concentration of 10^9/mL. An aliquot (0.5 mL) was transferred to a 1.5 mL snap-top polyethylene tube. An aliquot (0.004-0.040 mL) of the test compound stock solution prepared in water, ethanol or dimethylsulfoxide at 0.80-8.0 mM was added to the tube. Compounds were tested at concentrations between 4 μM and 320 μM. […] The tubes were placed in a light device as described in EXAMPLE 1 and irradiated for between 1 and 10 minutes. Sterile 13 mL dilution tubes were prepared; each test compound required one tube with 0.4 mL of Luria broth (LB) and five tubes containing 0.5 mL of LB broth. To make the dilutions, a 0.100 mL aliquot of the irradiated solution of phage and test compound was added to the first dilution tube of 0.4 mL of media then 0.020 mL of this solution was added to the second tube of 0.5 mL medium (1:25). The second solution was then diluted serially (1:25) into the remaining tubes. To each diluted sample was added 0.050 mL of Hfr 3000 bacteria cultured overnight and 3 mL of molten LB top agar and the mixed materials were poured onto LB broth plates. After the top agar hardened, the plates were incubated at 37° C. overnight. The plaque forming units were then counted the following morning and the titer of the phage remaining after phototreatment was calculated based on the dilution factors.
The following controls were run: the “phage only” in which phage was not treated with test compound and not irradiated (listed as “starting titer” in the tables below); the “UV only” in which the phage was irradiated in the absence of test compound; and the “dark” control in which the phage/test compound solution was not irradiated before it was diluted and plated.

Pseudomonas = assay: Bacterial inactivation, colony forming units; type: cell-based; settings: 16 μM; 5 J/cm^2 irradiation; starting titer 6.5 logs
Method: The bacteria, a strain of Pseudomonas, was inoculated into LB with a sterile loop and grown overnight in a shaker at 37° C. Based on the approximation that one OD at 610 mn is equivalent to 5×10^8 colony forming units (cfu)/mL, a 1:10 dilution of the culture was measured on a spectrophotometer, (manufactured by Shimatsu). The bacterial culture was added to a solution of 15% fetal bovine serum in DMEM to a final bacteria concentration of approximately 10^6/mL. An aliquot (0.8 mL) was transferred to a 1.5 mL snap-top polyethylene tube. An aliquot (0.004-0.040 mL) of the test compound stock solution prepared in water, ethanol or dimethylsulfoxide at 0.80-8.0 mM was added to the tube. Compounds were tested at a concentration of 16 μM. The tubes were placed in a light device as described in EXAMPLE 1 and irradiated with 1.3 J/cm^2, 1.2 J/cm^2, and finally 2.5 J/cm^2, for a total of 5 J/cm^2. 150 μL were removed for testing after each pulse period. Sterile 13 mL dilution tubes were prepared; each test compound required one tube with 0.4 mL of LB broth and four tubes containing 0.5 mL of LB broth. […] The colony forming units were then counted the following morning and the titer of the phage remaining after phototreatment was calculated based on the dilution factors. […]

[5] = Adsorption capacity of Amberlite adsorbents for Psoralens A, B and C from PC (Table V); type: physicochemical; settings: batch adsorption
Method: Stock solutions (15 mM) of each psoralen ([…], and C) were prepared in DMSO. […] Thereafter, control samples and test samples were prepared for HPLC analysis. Test samples were prepared by adding a 3.0 mL aliquot of each dilution to a 5 mL polypropylene tube containing 0.1 g of adsorbent; control samples were prepared in an analogous manner with the exception that the adsorbent was omitted. The test and control samples were then incubated for 6 hours at 22° C. by rotating gently on a mixer (Barnstead, Thermolyne Model 400110). […] Adsorption data were then obtained by HPLC analysis on the test and control samples. Specifically, a 200 μl sample volume of PC was removed from each tube following the incubation period (special care being taken to ensure that no adsorbent particles were removed with the test samples). […] The addition of methanol lyses platelets and precipitates plasma proteins so that psoralen contained within the platelets is not excluded by the assay. […] The slopes of the calibration curves were determined by linear least square method (y-intercept constrained to zero). […] The amount (μmoles) of psoralen which the adsorbent had removed from the PC was calculated [V(Co-Cf)]. […] As previously discussed, the slope of the adsorbent isotherm, K (L/g), is termed the adsorption constant and can be determined by a linear regression of the adsorption data.

SMILES: Cc1cc(=O)oc2c(C)c3oc(CNCCCCN)c(C)c3cc12 [Compound 17, 5′-(6-amino-2-aza)hexyl-4,4′,8-trimethylpsoralen]
bone marrow toxicity and micronucleus formation on dose escalation (in words) (mouse reticulocytes): the acutely lethal dose was reached before there were any signs of bone marrow toxicity or micronucleus formation
HIV Log Kill (HIV-1; 16 μM): 1.2 log
HIV Log Kill (HIV-1; 32 μM): 2.9 log
HIV Log Kill (HIV-1; 64 μM): 3.4 log
GMP-140 expression, treated sample (PCD) against day 5 untreated control (in words) (p-selectin (GMP140)): little or no difference
platelet count, treated against controls (in words) (platelets): higher platelet count than samples treated with light alone
R17 inactivation efficiency compared with AMT (in words) (R17 bacteriophage [1]): more efficient at inactivating R17 than was AMT

SMILES: COc1c2occc2cc2ccc(=O)oc12 [Compound 8-MOP, 8-Methoxypsoralen, reference compound]
mutagenic response in the Ames assay (in words) [3]: weak base-substitution mutagen in TA102 at 500 μg/plate
R17 log kill (32 μM) (R17 bacteriophage [4]): 0 log
log kill of Pseudomonas (Pseudomonas): 1.9 logs

Continued, values first:

HPLC retention time (rough estimate of hydrophobicity) [2]: 20.0 min
SMILES: COc1c2occc2c(Br)c2ccc(=O)oc12 [Psoralen B, 5-bromo-8-methoxypsoralen]

HPLC retention time (rough estimate of hydrophobicity) [2]: 7.8 min
SMILES: CC[N+](CC)(CC)Cc1c(C)oc2c(C)c3oc(=O)cc(C)c3cc12 [Psoralen A, 4′-(triethylamino) methyl-4,5′,8-trimethylpsoralen]

ease of removal from PC (in words) [5]: most easily removed from PC
HPLC retention time (rough estimate of hydrophobicity) [2]: 12.0 min
SMILES: CCN(CC)CCCOc1c2occc2c(Br)c2ccc(=O)oc12 [Psoralen C, 5-bromo-8-(diethylaminopropyloxy)-psoralen]

From patent publication US6544727B1, “Methods and devices for the removal of psoralens from blood products” (Cerus Corporation, priority 1995, dated 2003)
